Laboratory results published in ChEMBL document CHEMBL5604063, “ASAP - DENV-2 NS2B-NS3 protease fluorescence dose response” (2024).
“And” between values parts separate entries of the source, which are not always exact repeats. Equal entries are not always repeated.

How the values were obtained:
Genome polyprotein [1] = molecular target: T1, Genome polyprotein (dengue virus type 2, UniProt P29990); type: functional, Thailand/16681/1984
Genome polyprotein [2] = molecular target: T1, Genome polyprotein; type: functional, Thailand/16681/1984; remark: listed apart in the source

T1 sequence (P29990 1346-1475 limits assumed): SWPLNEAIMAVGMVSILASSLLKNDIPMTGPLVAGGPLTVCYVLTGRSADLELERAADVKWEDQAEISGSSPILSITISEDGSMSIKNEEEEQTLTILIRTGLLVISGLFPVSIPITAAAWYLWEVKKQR
T1 sequence (P29990 1476-2093 limits assumed): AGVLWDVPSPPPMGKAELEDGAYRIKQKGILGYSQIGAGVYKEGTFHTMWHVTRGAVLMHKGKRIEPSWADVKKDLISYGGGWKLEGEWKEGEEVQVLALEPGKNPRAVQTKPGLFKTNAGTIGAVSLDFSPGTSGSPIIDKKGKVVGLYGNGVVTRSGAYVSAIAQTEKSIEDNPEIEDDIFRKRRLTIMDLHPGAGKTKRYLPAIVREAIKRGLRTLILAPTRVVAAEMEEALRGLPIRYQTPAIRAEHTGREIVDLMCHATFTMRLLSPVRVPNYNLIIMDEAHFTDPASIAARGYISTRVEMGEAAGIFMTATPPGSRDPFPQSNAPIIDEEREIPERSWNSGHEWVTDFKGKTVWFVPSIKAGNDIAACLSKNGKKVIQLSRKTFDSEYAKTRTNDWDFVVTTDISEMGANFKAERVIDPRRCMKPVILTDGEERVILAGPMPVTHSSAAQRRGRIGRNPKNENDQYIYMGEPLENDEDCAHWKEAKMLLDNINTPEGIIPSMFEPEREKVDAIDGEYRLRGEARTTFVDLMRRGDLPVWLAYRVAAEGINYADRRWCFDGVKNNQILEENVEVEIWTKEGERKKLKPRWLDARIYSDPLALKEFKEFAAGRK

Structure (SMILES) | IC50 (Genome polyprotein [1]) | IC50 (Genome polyprotein [2])
CN(c1ccc2c(c1)CNC2)[C@H](C(=O)NCC(F)F)c1cc(Cl)cc(C2CC2)c1 | > 100 µM | > 99.5 µM
O=C(Nc1ccc2c(c1)CNC2)c1cc(F)cc2[nH]c(-c3cnc(C4CC4)o3)nc12 | > 100 µM | > 49.7 µM
O=C1Cc2c(cccc2C(=O)Nc2cc3c(cn2)OCCO3)N1 | > 100 µM | > 99.5 µM
Cc1c(C(=O)Nc2cc(C(=O)N[C@H]3CNC(=O)C3)ccn2)cc(C2CC2)n1C | > 100 µM | > 99.5 µM
COC1CN(C(=O)c2ccnc(NC(=O)c3cc(C4CC4)n(C)c3C)c2)C1 | > 100 µM | > 99.5 µM
Cc1cc(C(=O)Nc2ccc3c(c2)CNC3)cc2nc[nH]c12 | > 100 µM | > 99.5 µM
COCc1cc(Cl)cc([C@H](Nc2ccc3c(c2)CNC3)C(=O)NCC(F)F)c1 | > 100 µM | > 99.5 µM
O=C(NCC(F)F)[C@H](Nc1ccc2c(c1)CNC2)c1cc(Cl)ccc1Cl | > 100 µM | > 99.5 µM
C=CC[C@H]1c2ccc(NC(=O)c3cc(Br)cc4[nH]ccc34)cc2CN1C(=O)OC(C)(C)C | > 100 µM | > 99.5 µM
COc1cccc(-c2nc3c(C(=O)Nc4ccc5c(c4)CNC5)cc(F)cc3[nH]2)c1 | > 100 µM | 8.12 µM and 5.22 µM
CCNC(=O)c1ccnc(NC(=O)c2cc(C3CC3)n(C)c2C)c1 | > 100 µM | > 99.5 µM
O=C1Cc2c(cccc2C(=O)N[C@H]2COc3cc(Br)cnc32)N1 | > 100 µM | > 99.5 µM
O=C(Nc1ccc2c(c1)CNC2)c1cc(F)cc2[nH]c(CC[C@H]3CCCOC3)nc12 | > 100 µM | 76.2 µM
O=C(NCC(F)F)[C@H](Nc1ccc2c(c1)CNC2)c1cccc(Cl)c1 | > 100 µM | > 99.5 µM
O=C1Cc2c(cccc2C(=O)Nc2ccn(C[C@H]3CCOC3)n2)N1 | > 100 µM | > 99.5 µM
Cc1cc(N2CCC(NC(=O)c3cccc4c3CC(=O)N4)CC2)[nH]n1 | > 100 µM | > 99.5 µM
CCO[C@@H]1CC[C@H]1NC(=O)c1cccc2c1CC(=O)N2 | > 100 µM | > 99.5 µM
O=C1Cc2c(cccc2C(=O)N[C@H]2CCc3ncsc3C2)N1 | > 100 µM | > 99.5 µM
CCOCC1(c2nc3c(C(=O)Nc4ccc5c(c4)CNC5)cc(F)cc3[nH]2)CC1 | > 100 µM | > 99.5 µM
NCc1cccc(-c2csc3cc(C(=O)Nc4ccc5c(c4)CNC5)ccc23)c1 | > 100 µM | 22.4 µM and 14.7 µM
O=C(Nc1ccc2c(c1)CNC2)c1cc(F)cc2[nH]c(-c3cccc(F)c3)nc12 | 44.1 µM and 36 µM | 4.86 µM and 4.62 µM

Structure (SMILES) | IC50 (Genome polyprotein [1]) | IC50 (Genome polyprotein [2])
O=C1Cc2c(cccc2C(=O)N[C@H]2C[C@@H](c3ncc[nH]3)C2)N1 | > 100 µM | > 99.5 µM
Cc1c(C(=O)Nc2cc(C(=O)N3CC[C@H]3CO)ccn2)cc(C2CC2)n1C | > 100 µM | > 99.5 µM
O=C1Cc2c(cccc2C(=O)NC2CCN(c3nccs3)CC2)N1 | > 100 µM | > 99.5 µM
Cc1c(C(=O)Nc2cc(C(=O)Nc3cccnc3)ccn2)cc(C2CC2)n1C | > 100 µM | > 99.5 µM
O=C(NCC(F)F)[C@H](Nc1ccc2c(c1)CNC2)c1cccc2c1CCC2 | > 100 µM | > 99.5 µM
O=C(NCC(F)F)[C@H](Nc1ccc2c(c1)CNC2)c1cc(Cl)cc(Cl)c1Cl | > 100 µM | > 99.5 µM
CCc1cc2c(cc1NC(=O)c1cc(F)cc3[nH]ncc13)CNC2 | > 100 µM | > 99.5 µM
CC1(NC(=O)c2cccc3c2CC(=O)N3)CCOCC1 | > 100 µM | > 99.5 µM
O=C(Nc1ccc2c(c1)CNC2)c1ccc2c(C3=CCNCC3)csc2c1 | > 100 µM | 52.6 µM and 43.4 µM
COc1ccc(Cl)cc1[C@H](Nc1ccc2c(c1)CNC2)C(=O)NCC(F)F | > 100 µM | > 99.5 µM
O=C1Cc2c(cccc2C(=O)N[C@H]2CCC23CCOCC3)N1 | > 100 µM | > 99.5 µM
O=C1Cc2c(cccc2C(=O)Nc2ccc(-c3cccnc3)cn2)N1 | > 100 µM | > 99.5 µM
Cc1c(C(=O)Nc2cc(C(=O)N3CC[C@H](CO)C3)ccn2)cc(C2CC2)n1C | > 100 µM | > 99.5 µM
COc1ccccc1Cn1cnc2cc(C(=O)Nc3ccc4c(c3)CNC4)ccc21 | > 100 µM | > 99.5 µM
Cc1ccc(-c2nc3c(C(=O)Nc4ccc5c(c4)CNC5)cc(F)cc3[nH]2)cc1 | 70.2 µM | 16.4 µM and 39.9 µM
Cc1c(C(=O)Nc2cc(C(=O)N3CC(CO)C3)ccn2)cc(C2CC2)n1C | > 100 µM | > 99.5 µM
C[C@H](NC(=O)c1cccc2c1CC(=O)N2)c1cccc(S(C)(=O)=O)c1 | > 100 µM | > 99.5 µM
O=C(NCC(F)F)[C@H](Nc1ccc2c(c1)CNC2)c1cc(Cl)cc2c1CCC2 | > 100 µM | > 99.5 µM
O=C(NCC(F)F)[C@H](Nc1ccc2c(c1)CNC2)c1cc(Cl)cc2ccoc12 | > 100 µM | > 99.5 µM
CNC(=O)C[C@H]1CC[C@@H](NC(=O)c2cccc3c2CC(=O)N3)CC1 | > 100 µM | > 99.5 µM
O=C1Cc2c(cccc2C(=O)N[C@H]2CCSC3(CCOCC3)C2)N1 | > 100 µM | > 99.5 µM

Structure (SMILES) | IC50 (Genome polyprotein [1]) | IC50 (Genome polyprotein [2])
O=C1Cc2c(cccc2C(=O)NC2(c3ccc(O)nc3)CC2)N1 | > 100 µM | > 99.5 µM
NC(=O)N1CCc2ccc(NC(=O)c3cccc4c3CC(=O)N4)cc21 | > 100 µM | > 99.5 µM
Cc1[nH]nc2c1CC[C@H](NC(=O)c1cccc3c1CC(=O)N3)C2 | > 100 µM | > 99.5 µM
COc1cc(C#N)cc([C@H](Nc2ccc3c(c2)CNC3)C(=O)NCC(F)F)c1 | > 100 µM | > 99.5 µM
N#Cc1csc2cc(C(=O)Nc3ccc4c(c3)CNC4)ccc12 | > 100 µM | > 99.5 µM
C=CCNC(=O)C1(NC(=O)c2cccc3c2CC(=O)N3)CCCCC1 | > 100 µM | > 99.5 µM
O=C1Cc2c(cccc2C(=O)N[C@H]2C[C@H](Cn3ccnc3)C2)N1 | > 100 µM | > 99.5 µM
Cc1c(C(=O)Nc2cc(C(=O)N3CCC(O)CC3)ccn2)cc(C2CC2)n1C | > 100 µM | > 99.5 µM
Cc1c(C(=O)Nc2cc(C(=O)N3CCNC(=O)C3)ccn2)cc(C2CC2)n1C | > 100 µM | > 99.5 µM
O=C1Cc2c(cccc2C(=O)N[C@H]2CC[C@@H](n3ccnn3)CC2)N1 | > 100 µM | > 99.5 µM
Cc1c(C(=O)Nc2cc(C(N)=O)ccn2)cc(C2CC2)n1C | > 100 µM | > 99.5 µM
O=C1Cc2c(cccc2C(=O)NC2CC3(CCOCC3)C2)N1 | > 100 µM | > 99.5 µM
O=C(Nc1ccc2c(c1)CNC2)c1cc(F)cc2[nH]c(CCc3cccnc3)nc12 | > 100 µM | > 99.5 µM
O=C1Cc2c(cccc2C(=O)N[C@H]2CCc3cnccc32)N1 | > 100 µM | > 99.5 µM
C[C@H](NC(=O)c1cccc2c1CC(=O)N2)c1cc2cnccc2o1 | > 100 µM | > 99.5 µM
C[C@H](NC(=O)c1cccc2c1CC(=O)N2)c1ccncc1F | > 100 µM | > 99.5 µM
Cn1nc(CNc2ccc3c(c2)CNC3)cc1C1CC1 | > 100 µM | > 99.5 µM
O=C1Cc2c(cccc2C(=O)NC[C@H]2CCCN(c3nccs3)C2)N1 | > 100 µM | > 99.5 µM
COc1ccc(-c2nc3c(C(=O)Nc4ccc5c(c4)CNC5)cc(F)cc3[nH]2)cc1 | > 100 µM | > 99.5 µM
